# Results: patent US10800792B2, “Inhibitors of Bruton's tyrosine kinase and method of their use” (JANSSEN PHARMACEUTICA NV, priority 2015, dated 2020)
# Target: unphosphorylated-BTK kinase domain (UP-BTK), GST-tagged human BTK (389-659aa) (Homo sapiens (Human), UniProt Q06187)
# Assay: BTK kinase Lanthascreen binding assay
# Conditions: Lanthascreen tracer competition, 60 minutes incubation; pIC50 = negative log of the IC50 in molar
# Summary of the method: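 Tracer-displacement binding assay against the non-phosphorylated enzyme, read by Lanthascreen. Reported: pIC50.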
# unphosphorylated-BTK kinase domain (UP-BTK), GST-tagged human BTK (389-659aa), sequence (Q06187 389-659): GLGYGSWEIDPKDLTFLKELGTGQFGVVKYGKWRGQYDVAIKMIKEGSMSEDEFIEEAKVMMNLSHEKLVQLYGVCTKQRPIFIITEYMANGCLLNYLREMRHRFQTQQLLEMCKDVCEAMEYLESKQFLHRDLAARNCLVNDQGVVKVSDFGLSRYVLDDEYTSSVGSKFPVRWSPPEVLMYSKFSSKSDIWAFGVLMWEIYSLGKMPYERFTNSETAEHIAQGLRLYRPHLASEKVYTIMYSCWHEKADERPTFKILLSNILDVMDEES
row,SMILES,BTK_I_binding pIC50
1,"C=CC(=O)N1CCC[C@@H](NC(=O)c2sc3nccc4c3c2NC(=O)N4c2ccc(CC(C)C)cc2)C1 [Example 750, (R)—N-(1-Acryloylpiperidin-3-yl)-5-(4-isobutylphenyl)-4-oxo-4,5-dihydro-3H-1-thia-3,5,8-triazaacenaphthylene-2-carboxamide]",6.6
2,"C=CC(=O)N1CCC[C@@H](NC(=O)c2sc3nccc4c3c2NC(=O)N4c2cc(-c3ccccc3)cnn2)C1 [Example 751, (R)—N-(1-Acryloylpiperidin-3-yl)-4-oxo-5-(5-phenylpyridazin-3-yl)-4,5-dihydro-3H-1-thia-3,5,8-triazaacenaphthylene-2-carboxamide]",6.7
3,"CC(C)Cc1ccc(N2C(=O)Nc3c(C(=O)N[C@@H]4CCCNC4)sc4nccc2c34)cc1 [Example 754, (R)-5-(4-Isobutylphenyl)-4-oxo-N-(piperidin-3-yl)-4,5-dihydro-3H-1-thia-3,5,8-triazaacenaphthylene-2-carboxamide]",<6
4,"O=C(N[C@@H]1CCCNC1)c1sc2nccc3c2c1NC(=O)N3c1cc(-c2ccccc2)cnn1 [Example 755, (R)-4-Oxo-5-(5-phenylpyridazin-3-yl)-N-(piperidin-3-yl)-4,5-dihydro-3H-1-thia-3,5,8-triazaacenaphthylene-2-carboxamide]",<6
5,"C=CC(=O)N1CCC[C@@H](NC(=O)c2sc3nccc4c3c2NC(=O)N4c2ccc(CC(C)C)nc2C)C1 [Example 764, (R)—N-(1-Acryloylpiperidin-3-yl)-5-(6-isobutyl-2-methylpyridin-3-yl)-4-oxo-4,5-dihydro-3H-1-thia-3,5,8-triazaacenaphthylene-2-carboxamide]",6.3
6,"C=CC(=O)N1CCC[C@@H](NC(=O)c2sc3nccc4c3c2NC(=O)N4c2ccc(OC3CCOCC3)nc2C)C1 [Example 770, (R)—N-(1-Acryloylpiperidin-3-yl)-5-(2-methyl-6-((tetrahydro-2H-pyran-4-yl)oxy)pyridin-3-yl)-4-oxo-4,5-dihydro-3H-1-thia-3,5,8-triazaacenaphthylene-2-carboxamide]",<6
7,"C=CC(=O)N1CCC[C@@H](NC(=O)c2sc3nccc4c3c2NC(=O)N4c2ccc(Oc3cccnc3C)cc2)C1 [Example 771, (R)—N-(1-Acryloylpiperidin-3-yl)-5-(4-((2-methylpyridin-3-yl)oxy)phenyl)-4-oxo-4,5-dihydro-3H-1-thia-3,5,8-triazaacenaphthylene-2-carboxamide]",7.4
8,"C=CC(=O)N1CCC[C@@H](NC(=O)c2sc3nccc4c3c2NC(=O)N4c2ccc(Oc3cccc(C)n3)cc2C)C1 [Example 772, (R)—N-(1-Acryloylpiperidin-3-yl)-5-(2-methyl-4-((6-methylpyridin-2-yl)oxy)phenyl)-4-oxo-4,5-dihydro-3H-1-thia-3,5,8-triazaacenaphthylene-2-carboxamide]",7.7
9,"C=CC(=O)N1CCC[C@@H](NC(=O)c2sc3nccc4c3c2NC(=O)N4c2ccc(Oc3cccnc3C)cc2C)C1 [Example 773, (R)—N-(1-Acryloylpiperidin-3-yl)-5-(2-methyl-4-((2-methylpyridin-3-yl)oxy)phenyl)-4-oxo-4,5-dihydro-3H-1-thia-3,5,8-triazaacenaphthylene-2-carboxamide]",7.4
10,"C=CC(=O)N1CCC[C@@H](NC(=O)c2sc3nccc4c3c2NC(=O)N4c2ccc(Oc3cccnc3)cc2)C1 [Example 774, (R)—N-(1-Acryloylpiperidin-3-yl)-4-oxo-5-(4-(pyridin-3-yloxy)phenyl)-4,5-dihydro-3H-1-thia-3,5,8-triazaacenaphthylene-2-carboxamide]",7.9
11,"C=CC(=O)N1CCC[C@@H](NC(=O)c2sc3nccc4c3c2NC(=O)N4c2ccc(Oc3cccc(C)n3)cc2)C1 [Example 775, (R)—N-(1-Acryloylpiperidin-3-yl)-5-(4-((6-methylpyridin-2-yl)oxy)phenyl)-4-oxo-4,5-dihydro-3H-1-thia-3,5,8-triazaacenaphthylene-2-carboxamide]",7.5
12,"C=CC(=O)N1CCC[C@@H](NC(=O)c2sc3nccc4c3c2NC(=O)N4c2ccc(Oc3ccccc3F)cn2)C1 [Example 777, (R)—N-(1-Acryloylpiperidin-3-yl)-5-(5-(2-fluorophenoxy)pyridin-2-yl)-4-oxo-4,5-dihydro-3H-1-thia-3,5,8-triazaacenaphthylene-2-carboxamide]",8.3
13,"C=CC(=O)N1CCC[C@@H](NC(=O)c2sc3nccc4c3c2NC(=O)N4c2ccc(Oc3ccccn3)cc2C)C1 [Example 778, (R)—N-(1-Acryloylpiperidin-3-yl)-5-(2-methyl-4-(pyridin-2-yloxy)phenyl)-4-oxo-4,5-dihydro-3H-1-thia-3,5,8-triazaacenaphthylene-2-carboxamide]",8.0
14,"O=C(CCCC(=O)NCCCOCCOCCOCCCNC(=O)CCCC[C@H]1SC[C@H]2NC(=O)N[C@H]21)NC/C=C/C(=O)N1CCCC(NC(=O)c2sc3nccc4c3c2NC(=O)N4c2ccc(Oc3ccccc3)cn2)C1 (stereo partly drawn) [Example 780, N^1-(15-Oxo-19-((3aR,4R,6aS)-2-oxohexahydro-1H-thieno[3,4-d]imidazol-4-yl)-4,7,10-trioxa-14-azanonadecyl)-N^5-((E)-4-oxo-4-(3-(4-oxo-5-(5-phenoxypyridin-2-yl)-4,5-dihydro-3H-1-thia-3,5,8-triazaacenaphthylene-2-carboxamido)piperidin-1-yl)but-2-en-1-yl)glutaramide]",6.3
15,"C=CC(=O)N1CC[C@@H](NC(=O)c2sc3nccc4c3c2NC(=O)N4c2ccc(Oc3ccccn3)cc2C)C1 [Example 781, (R)—N-(1-Acryloylpyrrolidin-3-yl)-5-(2-methyl-4-(pyridin-2-yloxy)phenyl)-4-oxo-4,5-dihydro-3H-1-thia-3,5,8-triazaacenaphthylene-2-carboxamide]",7.4
16,"C=CC(=O)N1CCC[C@@H](NC(=O)c2sc3nccc4c3c2NC(=O)N4c2ccc(Oc3ccc(C)nc3)cc2C)C1 [Example 783, (R)—N-(1-Acryloylpiperidin-3-yl)-5-(2-methyl-4-((6-methylpyridin-3-yl)oxy)phenyl)-4-oxo-4,5-dihydro-3H-1-thia-3,5,8-triazaacenaphthylene-2-carboxamide]",7.1
17,"C=CC(=O)N1CCC[C@@H](NC(=O)c2sc3nccc4c3c2NC(=O)N4c2ccc(Oc3cccnn3)cc2C)C1 [Example 784, (R)—N-(1-Acryloylpiperidin-3-yl)-5-(2-methyl-4-(pyridazin-3-yloxy)phenyl)-4-oxo-4,5-dihydro-3H-1-thia-3,5,8-triazaacenaphthylene-2-carboxamide]",7.4
18,"C=CC(=O)N1CCC[C@@H](NC(=O)c2sc3nccc4c3c2NC(=O)N4c2ccc(O[C@H]3CCOC3)cc2C)C1 [Example 785, N—((R)-1-Acryloylpiperidin-3-yl)-5-(2-methyl-4-(((S)-tetrahydrofuran-3-yl)oxy)phenyl)-4-oxo-4,5-dihydro-3H-1-thia-3,5,8-triazaacenaphthylene-2-carboxamide]",7.1
